Results taken from US11292789B1 (priority 2020, dated 2022).

Experiments:
[1] = system: 12-day-old cortical cell cultures; experiment: Nerve cell protection against excitotoxin damage, MTT assay; type: cell-based; details: for Cell viability from excitotoxin-induced neuron toxicity: cortical cell cultures pre-treated 1 hour, then glutamate, AMPA, NMDA, kinate, MTT after one day
Experimental: Nerve cell protection ability was evaluated using Quinazole and MDPX-V2021 prepared according to Example 1 and MK-801 prepared according to Comparative Example 3.
To evaluate the neuroprotective activity of Quinazole, MDPX-V2021 and MK-801 against damage due to excitotoxin, each of the samples was dissolved in ethanol (final concentration, 0.1%), and a 12-day-old cortical cell cultures were used. The cultures were respectively pre-treated with the samples for 1 hour and then exposed to 20 μM glutamate, 80 μM α-amino-3-hydroxy-5-methyl-4-isoxazolepropionic acid, 40 μM N-Methyl-D-aspartic acid and 200 μM kinate. Next, each of the cultures was additionally cultured in neurobasal medium for one day, and the survival rate of the nerve cells was measured by MTT assay.
MTT tetrazolium (1 mg/mL) was added to neurons grown in 96-well plate, and then cultured at 37° C. for 1 hour. The reaction medium was carefully sucked, and then DMSO was added thereto to dissolve the blue formazan product. The survival rate of the nerve cells was estimated by quantifying an available formazan at 540 nm using a multi-mode plate reader. The test was repeated 3 times, and the cell viability was calculated according to 100×(excitotoxin OD+sample treatment-excitotoxin treatment OD)/(control OD-excitotoxin treatment OD).

α-glucosidase = α-glucosidase (Saccharomyces cerevisiae, UniProt P53341); type: biochemical; details: concentrations 0.01 to 0.25 mg/ml, FIG. 7
α-glucosidase, sequence (P53341 whole entry, looked up): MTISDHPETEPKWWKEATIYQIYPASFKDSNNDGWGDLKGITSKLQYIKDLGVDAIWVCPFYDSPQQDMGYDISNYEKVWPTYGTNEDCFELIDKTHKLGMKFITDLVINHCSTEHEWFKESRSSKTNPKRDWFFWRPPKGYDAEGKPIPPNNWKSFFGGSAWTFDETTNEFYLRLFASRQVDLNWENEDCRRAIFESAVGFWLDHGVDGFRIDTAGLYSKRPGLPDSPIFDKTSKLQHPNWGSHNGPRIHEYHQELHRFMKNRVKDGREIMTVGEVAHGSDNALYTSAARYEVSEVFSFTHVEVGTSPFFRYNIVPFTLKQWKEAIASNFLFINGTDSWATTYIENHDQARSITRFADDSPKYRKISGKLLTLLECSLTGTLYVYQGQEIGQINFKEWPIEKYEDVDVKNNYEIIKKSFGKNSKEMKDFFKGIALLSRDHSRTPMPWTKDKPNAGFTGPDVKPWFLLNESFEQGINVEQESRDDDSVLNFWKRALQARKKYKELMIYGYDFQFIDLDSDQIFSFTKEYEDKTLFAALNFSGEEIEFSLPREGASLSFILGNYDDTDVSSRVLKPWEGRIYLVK
Experimental: Next, 20 μl of P-NPG (5 mM) was added as a substrate and further incubated at 37° C. for 20 minutes. This reaction was stopped by adding 50 μl of Na2CO3 (0.1 M). […] Each experiment was performed three times. An inhibition rate (%) was evaluated using the following equation (inhibition (%)=[1−(sample/control)]×100).

Compound | Cell viability from excitotoxin-induced neuron toxicity [1] [%] | inhibitory activity against α-glucosidase (in words) (α-glucosidase) | cell viability compared with Quinazole (in words) ([1]; sample concentration range of 0.1 to 50 μM, FIG. 8)
COc1ccc(-n2cnc3ccc(OC)cc3c2=O)c(CO)c1 [Quinazol A, Dictyoquinazol A, reference compound] | 68.910 ± 1.406 |  | 
COc1ccc(-n2cnc3ccc(OC)cc3c2=O)c(COC(C)(C)C)c1 [MDPX-V2021, 3-{2-[(tert-butoxy)methyl]-4-methoxyphenyl}-6-methoxy-3,4-dihydroquinazolin-4-one] | 84.083 ± 3.482 | has inhibitory activity against α-glucosidase | significantly higher
CC12NC(Cc3ccccc31)c1ccccc12 (centres unmarked) [MK-801, reference compound] | 78.830 ± 0.567 |  | 
